Assay results published in the SangsterLogP compilation.

Tests used:
[1] = method code SF-AS, from DOI: 10.1007/s001289900104, PMID: 8661852
[2] = method code SF-AS, from DOI: 10.1002/em.2850200210, PMID: 1505530
[3] = method code SF-AS, from DOI: 10.1016/j.bioorg.2006.09.003, PMID: 17078995; conditions: pH 7.4
[4] = method code SF-AS, from Jha, T.; Debnath, A.; Mazumdar, A.; Sengupta, C.; De, A. (1986). Hansch analysis of antineoplastic agents, 5-N-substituted-2-p-substituted benzenesulfonyl-L-glutamines. Ind. J. Chem., Sect. B, …
[5] = not given; remark: listed apart in the source
[6] = method code SF, from DOI: 10.1016/s0045-6535(97)00338-x
[7] = method code SF-AS, from DOI: 10.1016/s0045-6535(98)00368-3
[8] = method code SF-AS, from DOI: 10.1128/aac.27.1.84, PMID: 2580479
[9] = method code SF-AS, from DOI: 10.1002/jps.2600630206, PMID: 4204981
[10] = method code SF-AS, from DOI: 10.1007/bf01648987
[11] = method code SF, from DOI: 10.1248/yakushi1947.96.10_1169, PMID: 1033993; conditions: pH 0.7
[12] = method code SF-AS, from DOI: 10.1016/j.ejps.2010.09.003, PMID: 20854904
[13] = not given; remark: listed apart in the source
[14] = from Rich, R. (1990). Partition coefficients of quinones and their relation to biochemical reactivity. In Lenaz, G. (Ed.), Highlights in Ubiquinone Research: Proceedings of the International Symposium, …
[15] = not given; remark: listed apart in the source
[16] = method code SF-AS, from DOI: 10.1007/bf01964075; conditions: pH 2.1
[17] = method code SF-HPLC, from PMID: 1293941
[18] = not given; remark: listed apart in the source
[19] = not given; remark: listed apart in the source

CN(c1ccccc1)c1nc(Cl)nc(Cl)n1
logP [1]: 3.07

O=C1c2cc([N+](=O)[O-])ccc2-c2ccc([N+](=O)[O-])cc21
logP [2]: 2.84

CCC(=O)OCCc1ccc(O)c(O)c1
logD [3]: 1.2

Cc1ccc(S(=O)(=O)NC(CCC(=O)NC2CCCCC2)C(=O)O)cc1 (configuration not stated)
logP [4]: 0.32

O=C(O)CCCCCOc1cccc2ccccc12
logP: 4.5

FC(F)(F)c1cccc(C2CNCCO2)c1 (configuration not stated)
logP [5]: 2.18

CC(=O)Nc1ccc(F)cc1F
logP [6]: 1.5

COC(=O)c1ccccc1CS(N)(=O)=O
logP [7]: 0.37

CCN1CCN(C(=O)N[C@@H](C(=O)N[C@@H]2C(=O)N3C(C(=O)O)=C(CSc4nnnn4C)CS[C@H]23)c2ccc(O)cc2)C(=O)C1=O
logP [8]: -0.74

CCCCCCNC(=O)CCC(NS(=O)(=O)c1ccc(C)cc1)C(=O)O (configuration not stated)
logP [4]: 0.92

CC(C)N1CCOC(c2ccccc2)C1 (configuration not stated)
logP [5]: 2.3

O=C1CC(C(=O)O)Oc2ccc(Cl)cc21 (configuration not stated)
logP [9]: 1.77

CC(=O)NC1CC1c1ccccc1 (configuration not stated)
logP [10]: 1.43

C=CCC1(CC=C)C(=O)NC(=O)N(C)C1=O
logD [11]: 1.55

CCC1(CCC(C)C)C(=O)NC(=O)N(C)C1=O (configuration not stated)
logD [11]: 2.45

Fc1cccc(C2CNCCO2)c1 (configuration not stated)
logP [5]: 1.42

O=C(CCN1CCCCC1)c1ccccc1
logD ([12]; pH 10.0): 2.4

Cc1cc(CCO)ccc1O
logD [3]: 0.5

Nc1ccc(-c2ccc(N)cc2)cc1
logP [13]: 1.53

CC(Oc1ccc(Cl)cc1)C(=O)O (configuration not stated)
logP [9]: 2.31

O=[N+]([O-])c1c(O)nc(-c2ncncn2)nc1O
logP [1]: 2.02

Cc1c(C)c(O)c(C)c(C)c1O
logP [14]: 1.8

COC(=O)CS(=O)c1ccc(Cl)cc1[N+](=O)[O-] (configuration not stated)
logP [15]: 1.69

CC[C@H](C)[C@H](NC(C)=O)C(=O)NC
logD [16]: 0.14

O=[N+]([O-])c1cccc2cccnc12
logP [2]: 1.44

CCCC1(CC)C(=O)NC(=O)N(C)C1=O (configuration not stated)
logD [11]: 1.65

CCCCCCCCOC(=O)c1ccc(N)cc1
logP [17]: 5.02

Oc1ccc(Br)cc1Br
logP [10]: 3.48

CCN(CC)CCC(=O)c1ccccc1
logD ([12]; pH 10.0): 1.59

COC(=O)CSc1ccc([N+](=O)[O-])cc1
logP [15]: 2.29

COC(=O)c1ccccc1S(=O)(=O)NC(=O)Nc1nc(C)cc(C)n1
logP: 1.3

O=[N+]([O-])c1ccc2ccccc2c1
logP [2]: 3.24

O=[N+]([O-])c1cc(F)ccc1O
logP [6]: 1.88

CCCOC(=O)c1ccc(N)cc1
logP [17]: 2.43

CCN(CC)CC
logP [13]: 1.36

Cc1cc(Cl)ccc1O
logP [10]: 2.78

O=C(O)COc1ccc(F)cc1
logD ([6]; pH 2.0): 1.57

O=C(Oc1ccc2cc(Br)ccc2c1)C1OC(O)C(O)C(O)C1O (configuration not stated)
logP [18]: 1.97

CNC(=O)C1CCCN1C(C)=O (configuration not stated)
logD [16]: -1.19

COC(=O)CS(=O)c1ccc([N+](=O)[O-])cc1 (configuration not stated)
logP [15]: 0.98

CCCCCOC(=O)c1ccc(N)cc1
logP [17]: 3.48

Cc1c(O)ccc(O)c1C
logP [14]: 1.36

CN(C)Cc1ccccc1
logP [13]: 1.91

Clc1nc(Cl)nc(Nc2ccccc2)n1
logP [1]: 3.03

O=C(Oc1ccccc1)C1OC(O)C(O)C(O)C1O (configuration not stated)
logP [18]: -0.69

CC(=O)Oc1ccc(F)cc1
logP [6]: 1.41

Cc1cc(O)cc(C)c1O
logP [14]: 1

O=C(CCNC1CCCCC1)c1ccccc1
logD ([12]; pH 11.0): 2.57

c1ccc(C2CNCCO2)cc1 (configuration not stated)
logP [5]: 1.11

Cc1c(Cl)ccc(Cc2c(Cl)cccc2Cl)c1Cl
logP [19]: 6.58

Cc1cc(Cc2ccc(Cl)cc2Cl)c(Cl)cc1Cl
logP [19]: 6.77

Cc1cc(Cc2c(Cl)cccc2Cl)c(Cl)cc1Cl
logP [19]: 6.53
